Results as given in patent US20250369124A1, “IMIDAZOLINE-SUGAR CONJUGATE COMPOSITIONS AND METHODS FOR INHIBITING CORROSION” (Ecolab USA Inc., priority 2024, published 2025).
Values joined by “and” are separate entries in the source; they are usually repeats but may differ in a detail not shown here. Equal values may be shown once. “Also recorded” adds a separate entry of the source.

Legend:
[1] = Physical stability / water solubility of the inhibitor formulation (observation); format: physicochemical; details: for physical stability of the formulation: 418.4 mM solution in water
[2] = Wheel box test (NACE publication ID182), corrosion of carbon steel coupons in CO2-saturated brine/oil; details: for corrosion inhibitor performance (in words): wheel box test
Source text: To determine the efficacy of the compositions as corrosion inhibitors, a wheel box test was used. It is a testing methodology from NACE publication ID182. The method is used to assess the degree of protection afforded to a metal surface that is in contact with water laden with carbon dioxide (C02). The wheel box test is a test that is often used in the field for comparative corrosion inhibitor performance tests. The standard test conditions used in the performance test are in Table 1.
A continuous wheel box test procedure was used to compare the performance of the corrosion inhibitor formulations of the invention in mitigating the corrosion of carbon steel in solutions saturated with carbon dioxide. Into a set of bottles containing the desired brine and oil mixtures, Table 1, clean and pre-weighed coupons were immersed. The solution was purged with carbon dioxide, after which the solutions were dosed with the various concentrations of the formulations. After purging the headspace with carbon dioxide, the bottles were immediately capped to prevent aerial exposure.
Blanks, comprising bottles of untreated mixtures, were used to determine the baseline corrosion rate under the test conditions. The bottles were placed on a rotating wheel under incubation at 80° C. for a period of 24 hours. Following the completion of the incubation, the bottles were retrieved and left to cooled to room temperature. The coupons were removed from the test solutions, cleaned, dried, sandblasted and re-weighed. By comparing the mass loss of the coupons immersed in treated solutions versus the mass loss for coupons placed in untreated solutions, the corrosion rate and protection efficiency were calculated.

[3] = 5 ppm of Corrosion Inhibitor, low dosage comparison, method of Example 4
[4] = 10 ppm of Corrosion Inhibitor, low dosage comparison, method of Example 4
[5] = 25 ppm of Corrosion Inhibitor, low dosage comparison, method of Example 4
[6] = 50 ppm of Corrosion Inhibitor, low dosage comparison, method of Example 4
[7] = 5000 ppm inhibitor, 80° C., 24 hours, CO2 saturated, 80% ASTM Seawater brine / 20% LVT-200
[8] = 20000 ppm inhibitor, 80° C., 24 hours, CO2 saturated, 80% ASTM Seawater brine / 20% LVT-200
[9] = 50000 ppm inhibitor, 80° C., 24 hours, CO2 saturated, 80% ASTM Seawater brine / 20% LVT-200

Row | SMILES | physical stability of the formulation [1] | % Protection [2, 3] [%] | % Protection [2, 4] [%] | % Protection [2, 5] [%] | % Protection [2, 6] [%] | % Protection [2, 7] [%] | % Protection [2, 8] [%] | % Protection [2, 9] [%] | corrosion inhibitor performance (in words) [2] | further results
1 | CCCCCCCC/C=C\CCCCCCCC1=NCCN1CCN [Comparative Formulation, Acetate, reference compound] | physically unstable | 14 | 24 | 42 | 55 | 89 | 89 | 90 | robust even at low treatment doses | % Protection ([2]; 500 ppm inhibitor, 80° C., 24 hours, CO2 saturated, 80% ASTM Seawater brine / 20% LVT-200, Acetate): 88% and 89%; % Protection ([2]; 1000 ppm inhibitor, 80° C., 24 hours, CO2 saturated, 80% ASTM Seawater brine / 20% LVT-200, Acetate): 89% and 90%; % Protection ([2]; 2000 ppm inhibitor, 80° C., 24 hours, CO2 saturated, 80% ASTM Seawater brine / 20% LVT-200, Acetate): 90% and 89%; % Protection ([2]; 10000 ppm inhibitor, 80° C., 24 hours, CO2 saturated, 80% ASTM Seawater brine / 20% LVT-200, Acetate): 89% and 90%; average protection efficiency ([2]; average of Table 3 (500-50000 ppm)): 89%
2 | CC(=O)O.CCCCCCCC/C=C\CCCCCCCC1=NCCN1CCNC1OC(CO)C(O)C(O)C1O (stereo not shown) [Formula 1, (Z)-2-((2-(2-(heptadec-8-en-1-yl)-4,5-dihydro-1H-imidazol-1-yl)ethyl)amino)-6-(hydroxymethyl)tetrahydro-2H-pyran-3,4,5-triol acetate salt] |  | 22 | 32 | 54 | 63 | 94 |  |  | perform significantly better than the comparative sample even at low dosage rates | % Protection ([2]; 500 ppm inhibitor, 80° C., 24 hours, CO2 saturated, 80% ASTM Seawater brine / 20% LVT-200): 95%; % Protection ([2]; 1000 ppm inhibitor, 80° C., 24 hours, CO2 saturated, 80% ASTM Seawater brine / 20% LVT-200, listed as Formulation 1, acetate salt): 93% and 94%; % Protection ([2]; 2000 ppm inhibitor, 80° C., 24 hours, CO2 saturated, 80% ASTM Seawater brine / 20% LVT-200, listed as Formulation 1, acetate salt): 93% and 94%; % Protection ([2]; 10000 ppm inhibitor, 80° C., 24 hours, CO2 saturated, 80% ASTM Seawater brine / 20% LVT-200, listed as Formulation 1, acetate salt): 95% and 94%; % Protection ([2]; 20000 ppm inhibitor, 80° C., 24 hours, CO2 saturated, 80% ASTM Seawater brine / 20% LVT-200, listed as Formulation 1, acetate salt): 96% and 95%; % Protection ([2]; 50000 ppm inhibitor, 80° C., 24 hours, CO2 saturated, 80% ASTM Seawater brine / 20% LVT-200, listed as Formulation 1, acetate salt): 95% and 94%
3 | CC(=O)[O-].CCCCCCCC/C=C\CCCCCCCC1=[N+](CC(O)c2ccccc2)CCN1CCNC1OC(CO)C(O)C(O)C1O (stereo not shown) [Formula 2, (Z)-2-(heptadec-8-en-1-yl)-3-(2-hydroxy-2-phenylethyl)-1-(2-((3,4,5-trihydroxy-6-(hydroxymethyl)tetrahydro-2H-pyran-2-yl)amino)ethyl)-4,5-dihydro-1H-imidazol-3-ium acetate salt] | physically stable | 28 | 36 | 57 | 73 |  | 94 | 94 |  | solubility in water [1]: high solubility in water; % Protection ([2]; 500 ppm inhibitor, 80° C., 24 hours, CO2 saturated, 80% ASTM Seawater brine / 20% LVT-200, listed as Formulation 2, acetate salt): 91% and 92%; % Protection ([2]; 1000 ppm inhibitor, 80° C., 24 hours, CO2 saturated, 80% ASTM Seawater brine / 20% LVT-200): 92%; % Protection ([2]; 2000 ppm inhibitor, 80° C., 24 hours, CO2 saturated, 80% ASTM Seawater brine / 20% LVT-200, listed as Formulation 2, acetate salt): 91% and 92%; % Protection ([2]; 5000 ppm inhibitor, 80° C., 24 hours, CO2 saturated, 80% ASTM Seawater brine / 20% LVT-200, listed as Formulation 2, acetate salt): 92% and 93%; % Protection ([2]; 10000 ppm inhibitor, 80° C., 24 hours, CO2 saturated, 80% ASTM Seawater brine / 20% LVT-200, listed as Formulation 2, acetate salt): 93% and 94%; corrosion inhibitor performance (in words) ([2]; acetate salt): greatly improved corrosion inhibitor performance even at low dosages; also recorded: highly effective; also recorded: perform significantly better than the comparative sample even at low dosage rates
